Reference: patent US9539221B2, “Method of treating airway diseases with β-adrenergic inverse agonists” (EGB ADVISORS, LLC, priority 2003, dated 2017)
Entries after “also recorded” stand apart in the source; their conditions may differ. Read-outs that look alike come from different tables or passages of the source.

Assays:
Phospholipase C (PLC-β1) = experiment: Ratio of phospholipase C to actin by immunoblotting in cultured tracheal smooth muscle cells of treated mice; assay type: cell-based; details: asthmatic mice, chronic nadolol high dose treatment
Text: Cultured tracheal smooth muscle cells were obtained from mice exposed to the following treatments: NS/NC=nonasthmatic, non-challenged mice; S/C=asthmatic mice; Sal.Ac=asthmatic mice, acute salbutamol treatment; Sal.Ch=asthmatic mice, chronic salbutamol treatment; Nad.Ac=asthmatic mice, acute nadolol high dose treatment; and Nad.Ch=asthmatic mice, chronic nadolol high dose treatment.
After airway function experiments, the trachea were surgically removed from anesthetized mice that had been treated with drugs or vehicle. The trachea was minced and the cells plated and grown in culture. The smooth muscle cells grow faster and take over the culture dish. The cells were grown in medium which contained the drugs used in the treatment or vehicle controls. Phospholipase C (PLC-β1) was determined by immunoblotting with an antibody specific for the enzyme. Actin was used as a loading control and the amount of PLC-β1 was expressed as a ratio to actin.
The phospholipase C protein level was measured in these cultured cells and compared with the level of the structural protein actin as a baseline. The enzyme phospholipase C plays a key role in the pathway leading to asthmatic symptoms, as it cleaves a phosphodiester bond in membrane phospholipids, resulting in the formation of a 1,2-diglyceride. […]

asthmatic mice [1] = experiment: Airway resistance (Raw) response to methacholine provocation in murine model of asthma (forced oscillation); assay type: in vivo, Balb/cJ mice
Experimental: Balb/cJ mice aged 6 weeks (Jackson Animal Laboratory, Bar Harbor, Me.) were housed under specific pathogen-free conditions and fed a chicken ovalbumin-free diet. The Animal Research Ethics Boards of both the University of Houston and the Baylor College of Medicine approved all experiments reported here. […] Mice were sensitized with subcutaneous injection of 25 μg of ovalbumin adsorbed to aluminum hydroxide on protocol days 2, 9, and 16. Subsequently, mice were given 50 μL of saline solution containing 25 μg of ovalbumin intranasally, on a daily basis, from protocol days 23 through 27. A group of ovalbumin-sensitized saline-challenged mice serves as controls for systemic sensitization and respiratory challenges with ovalbumin. Prior to intranasal administrations, mice were sedated with halothane vapor.
To examine the effects of duration of β-adrenergic ligand therapy on the phenotype of the murine model of asthma, the experimental drugs were administered either acutely or chronically to different groups of asthmatic mice.
Asthmatic mice on acute therapy were given a single intravenous bolus infusion of either β-adrenergic drug or normal saline on protocol day 28, 15 minutes before airway responsiveness to methacholine was determined. […] Asthmatic mice on chronic therapy were treated with the β-adrenergic drug during protocol days 1 to 28. […] These concentrations were chosen based on those producing therapeutic effects in mice in previously published studies. The non-asthmatic mice were fed normal chow.
On protocol day 28, mice were anesthetized, tracheotomized, and connected to a computer-controlled small animal ventilator (Flexivent, Scientific Respiratory Equipment, Inc., Montreal, Canada). Airway resistance (Raw) was measured using the forced oscillation technique. The cellular composition of bronchoalveolar lavage fluid (BALF) was also determined.
To induce airway constriction, a solution containing 150 μg/mL of acetyl-α-methylcholine chloride (methacholine) (Sigma Chemical, St. Louis, Mo.) was infused intravenously at constant rates using a syringe infusion pump (Raze Scientific Instruments, Stanford, Conn.). […] Each methacholine dose was administered for 3 to 5 minutes, during which data were sampled at 1-minute intervals and then averaged.
The complex input impedance of the respiratory system was computed and the value of the real part of respiratory system impedance at 19.75 Hz was taken to reflect the magnitude of airway resistance (Raw). To examine the degree of airway responsiveness of each animal, the values for Raw as a function of methacholine doses were plotted. The largest value for Raw achieved in response to methacholine stimulation was referred to as Rawpeak. For mice that achieved a plateau in the methacholine dose-Raw response curve, the ED50 was calculated by linear interpolation using the GraphPad Prism4 (GraphPad Software, Inc.). […] The Bonferroni test was used to examine the statistical differences between experimental groups. The effects of acute drug treatments on baseline respiratory system mechanics were assessed using a two-tailed paired t-test. A value of P<0.05 was considered significant.
For these experiments, salbutamol was used for chronic administration at 0.5 mg/kg/day with a minipump and for acute administration at 0.15 mg/kg by i.v. bolus 15 minutes prior to challenge. Alprenolol was used at a high dose of 7200 ppm in chow or at a low dose of 720 ppm in chow. Carvedilol was used at a high dose of 2400 ppm in chow or at a low dose of 720 ppm in chow.

β2-adrenergic receptor [2] = experiment: Immunohistochemistry of β2-adrenergic receptor levels in lung sections; assay type: in vivo, mice; details: chronic treatment versus untreated animals; epifluorescent microscopy
Experimental: The mice were sacrificed and the lungs excised. […] Lungs were embedded in OCT and 12-μm sections cut with a Tissue-Tek II cryostat. […] After 3 washes in PBS, the slides were blocked with 5% milk in PBS for 1 h, and then incubated overnight with anti-β2-adrenergic receptor antibody (1:200, Santa Cruz Biotechnology) in blocking solution. Slides were washed in PBS and incubated with secondary antibody (1:200, Cy3 goat anti-rabbit, 16 h at 4° C.). […] After washing with PBS, coverslips were mounted and viewed by epifluorescent microscopy.

asthmatic mice [3] = details: same mouse asthma model, Callaerts-Vegh et al. 2004, cited from earlier work
[4] = test system: sensitized and allergen-challenged mice; experiment: Acute nadolol with aminophylline, methacholine-induced bronchoconstriction; assay type: in vivo; details: nadolol 0.72 mg/kg i.p. 15 minutes prior to methacholine challenge
Experimental: Mice were sensitized to the allergen ovalbumin as described in Example 1. […] At time point 1 (time=−10 min) baseline airway resistance of the mice was determined. At time point 2 (time=−5 min) methacholine was infused into mice to reach their EC70.

β2-adrenergic receptor [5] = molecular target: β2-adrenergic receptor (Mus musculus, UniProt P18762); experiment: β-adrenergic receptor density in lung membranes of treated asthmatic mice by ICYP radioligand binding; assay type: in vivo
β2-adrenergic receptor (Mus musculus, UniProt P18762), sequence (P18762 whole entry): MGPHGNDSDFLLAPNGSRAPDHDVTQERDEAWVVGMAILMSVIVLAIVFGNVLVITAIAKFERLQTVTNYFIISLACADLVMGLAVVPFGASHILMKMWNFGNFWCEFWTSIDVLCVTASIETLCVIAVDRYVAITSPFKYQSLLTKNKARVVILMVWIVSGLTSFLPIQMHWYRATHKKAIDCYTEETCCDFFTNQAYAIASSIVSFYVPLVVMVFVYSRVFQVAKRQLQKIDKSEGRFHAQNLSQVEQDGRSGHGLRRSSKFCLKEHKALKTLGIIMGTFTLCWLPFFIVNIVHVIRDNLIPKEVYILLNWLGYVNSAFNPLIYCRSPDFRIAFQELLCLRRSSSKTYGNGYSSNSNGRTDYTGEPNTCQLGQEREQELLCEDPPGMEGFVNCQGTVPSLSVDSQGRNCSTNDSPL
Experimental: (§1) β2-adrenergic receptor numbers were measured in asthmatic mice as follows. […] Mice were sacrificed and lung membranes were isolated as follows. Frozen lung tissue was homogenized in an ice-cold buffer containing 0.32 M sucrose and 25 mM Tris (pH 7.4) using a polytron (Pro 200, Pro Scientific, Inc.). The homogenate was centrifuged at 1000×g for 10 min at 4° C. The resulting supernatant was centrifuged at 40,000×g for 20 min at 4° C. The pellet was suspended in an ice-cold 25 mM Tris-HCl buffer (pH 7.4) and centrifuged at 40,000×g for 20 min at 4° C. The final pellet was suspended in 200 μL of 25 mM Tris-HCl (pH 7.4); membrane protein concentration was determined by BCA protein assay kit. […] The incubation was done at 37° C. for 2 h and terminated by rapid vacuum filtration through glass fiber filters. The filters were washed three times with 250 μL of cold wash buffer (25 mM Tris-HCl, pH 7.4) and the radioactivity determined in a counter. […] Receptor densities are expressed as femtomoles of sites per milligram of protein. Bmax is determined by nonlinear regression of the saturation binding curves.

β2-adrenergic receptor [6] = experiment: as above; assay type: in vivo; details: 2 days of administration
Experimental: as §1

SMILES: CC(C)(C)NCC(O)COc1cccc2c1CC(O)C(O)C2 (centres unmarked) [Nadolol, nadolol]
- ratio of phospholipase C to actin (Phospholipase C (PLC-β1)): significantly decreases the activity of phospholipase C
- airway resistance (Raw) (asthmatic mice [1]; 1 ppm in chow): identical to the untreated mice
- airway responsiveness to methacholine provocation (airway resistance, Raw) (asthmatic mice [1]; asthmatic mice, chronic: 28 days (chow; salbutamol by osmotic minipump)): produced a decrease in airway responsiveness, which was more pronounced than that caused by carvedilol treatment; also recorded: reduced the responsiveness of asthmatic mice to methacholine provocation
- protection from airway hyperresponsiveness (asthmatic mice [1]; chronic administration, high and low dose in chow (Example 6)): providing protection from airway hyperresponsiveness
- labeling with anti-β2-adrenergic receptor antibodies in lungs (β2-adrenergic receptor [2]): considerably more intense; also recorded: increase in β-adrenergic receptor density
- airway hyperresponsiveness (asthmatic mice [3]; administered acutely): worsens airway hyperresponsiveness
- airway hyperresponsiveness (asthmatic mice [3]; administered chronically): prevents airway hyperresponsiveness
- baseline airway resistance [4]: same baseline airway resistance as non-drug treated sensitized and allergen-challenged mice
- Bmax (β-adrenergic receptor density) (β2-adrenergic receptor [5]; 15 Minutes drug treatment, lung membranes of asthmatic mice, mean±SEM): 181.9 ± 48.28 femtomoles of sites per milligram of protein
- βmax (β-adrenergic receptor density) (β2-adrenergic receptor [5]; 28 Days drug treatment, lung membranes of asthmatic mice, mean±SEM): 785.5 ± 154.8 femtomoles of sites per milligram of protein
- Increased β2AR density (β2-adrenergic receptor [5]; 28 days of administration): showed an increase in receptor density
- increase of the level of β2-adrenergic receptors over the non-treated mice (β2-adrenergic receptor [5]; chronic administration, versus untreated methacholine-challenged asthmatic mice): nearly eightfold increase
- Increased β2AR density (β2-adrenergic receptor [6]): yes
- Increased β2AR density (β2-adrenergic receptor [6]; listed as nadolol): showed an increase in receptor density
